pIC50: −log10 of the molar value.
molecular target: T1, 5-hydroxytryptamine receptor 1A (Rattus norvegicus, UniProt P19327); experiment: Inhibition of [3H]8-OH-DPAT binding at serotonin 5-hydroxytryptamine 1A receptor from rat hippocampus tissue.; type: tissue-based
T1 sequence (P19327 whole entry): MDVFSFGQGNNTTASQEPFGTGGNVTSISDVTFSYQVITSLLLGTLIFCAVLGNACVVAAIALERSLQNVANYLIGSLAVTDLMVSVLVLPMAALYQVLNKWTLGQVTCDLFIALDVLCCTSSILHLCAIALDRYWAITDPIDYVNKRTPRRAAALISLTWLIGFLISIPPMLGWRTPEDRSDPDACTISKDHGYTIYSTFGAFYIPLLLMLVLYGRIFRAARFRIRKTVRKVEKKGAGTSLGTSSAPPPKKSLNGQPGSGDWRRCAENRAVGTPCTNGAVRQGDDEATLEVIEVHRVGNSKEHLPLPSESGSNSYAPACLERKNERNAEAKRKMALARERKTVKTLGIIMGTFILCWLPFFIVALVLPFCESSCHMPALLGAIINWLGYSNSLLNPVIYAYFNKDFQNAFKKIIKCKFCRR

| SMILES | pIC50 |
| --- | --- |
| O=C1c2ccccc2C(=O)N1CCCN1CCN(c2nsc3ccccc23)CC1 | 7.89 |
| O=C1c2ccccc2CN1CCCN1CCN(c2nsc3ccccc23)CC1 | 6.41 |
| O=C1c2ccccc2C(=O)N1CC1CC1CN1CCN(c2nsc3ccccc23)CC1 (configuration not stated) | 7.72 |
| O=C1c2ccccc2CN1CCCCCN1CCN(c2nsc3ccccc23)CC1 | 8.57 |
| O=C1c2ccccc2C(=O)N1CCCCCN1CCN(c2nsc3ccccc23)CC1 | 8.70 |
| O=C1c2ccccc2CN1CCN1CCN(c2nsc3ccccc23)CC1 | 7.40 |
| O=C1c2ccccc2C(=O)N1CCOCCN1CCN(c2nsc3ccccc23)CC1 | 7.27 |
| O=C1c2ccccc2C(=O)N1C/C=C/CN1CCN(c2nsc3ccccc23)CC1 | 8.33 |
| O=C1c2ccccc2C(=O)N1C/C=C\CN1CCN(c2nsc3ccccc23)CC1 | 7.62 |
| O=C1c2ccccc2CN1C1CCC(N2CCN(c3nsc4ccccc34)CC2)CC1 (configuration not stated) | 6.85 |
| O=C1c2ccccc2C(=O)N1CC#CCN1CCN(c2nsc3ccccc23)CC1 | 6.38 |
| O=C1c2ccccc2C(=O)N1CCN1CCN(c2nsc3ccccc23)CC1 | 7.27 |

molecular target: Serotonin 2 (5-HT2) receptor (Rattus norvegicus, UniProt P30994+P08909+P14842); experiment: Inhibition of [3H]ketanserin binding at 5-hydroxytryptamine 2 receptor from rat frontal cortex.

| SMILES | IC50 |
| --- | --- |
| O=C1c2ccccc2C(=O)N1CCCN1CCN(c2nsc3ccccc23)CC1 | 6 nM |
| O=C1c2ccccc2CN1C/C=C/CN1CCN(c2nsc3ccccc23)CC1 | 1.7 nM |
| O=C1c2ccccc2CN1CC#CCN1CCN(c2nsc3ccccc23)CC1 | 18 nM |
| O=C1c2ccccc2CN1C/C=C\CN1CCN(c2nsc3ccccc23)CC1 | 5.5 nM |
| O=C1c2ccccc2CN1CCCN1CCN(c2nsc3ccccc23)CC1 | 13 nM |
| O=C1c2ccccc2C(=O)N1CC1CC1CN1CCN(c2nsc3ccccc23)CC1 (configuration not stated) | 4 nM |
| O=C1c2ccccc2CN1CCOCCN1CCN(c2nsc3ccccc23)CC1 | 1.7 nM |
| O=C1c2ccccc2CN1CCCCCN1CCN(c2nsc3ccccc23)CC1 | 2.2 nM |
| O=C1c2ccccc2C(=O)N1CCCCCN1CCN(c2nsc3ccccc23)CC1 | 1.8 nM |
| O=C1c2ccccc2CN1CCN1CCN(c2nsc3ccccc23)CC1 | 9.8 nM |
| O=C1c2ccccc2C(=O)N1CCOCCN1CCN(c2nsc3ccccc23)CC1 | 5.4 nM |
| O=C1c2ccccc2C(=O)N1C/C=C/CN1CCN(c2nsc3ccccc23)CC1 | 0.78 nM |
| O=C1c2ccccc2C(=O)N1C/C=C\CN1CCN(c2nsc3ccccc23)CC1 | 3.2 nM |
| O=C1c2ccccc2CN1C1CCC(N2CCN(c3nsc4ccccc34)CC2)CC1 (configuration not stated) | 120 nM |
| O=C1c2ccccc2C(=O)N1CC#CCN1CCN(c2nsc3ccccc23)CC1 | 43 nM |
| O=C1c2ccccc2C(=O)N1CCN1CCN(c2nsc3ccccc23)CC1 | 30 nM |

system: Mus musculus; experiment: In vivo inhibition of apomorphine-induced climbing response in mice.; type: functional

| SMILES | ED50 |
| --- | --- |
| O=C1c2ccccc2C(=O)N1CCCN1CCN(c2nsc3ccccc23)CC1 | > 25 mg/kg |
| O=C1c2ccccc2CN1C/C=C/CN1CCN(c2nsc3ccccc23)CC1 | 17.6 mg/kg |
| O=C1c2ccccc2C(=O)N1CCCCN1CCN(c2nsc3ccccc23)CC1 | 1.1 mg/kg |
| O=C1c2ccccc2CN1CC#CCN1CCN(c2nsc3ccccc23)CC1 | > 25 mg/kg |
| O=C1c2ccccc2CN1C/C=C\CN1CCN(c2nsc3ccccc23)CC1 | 13.9 mg/kg |
| O=C1c2ccccc2CN1CCCN1CCN(c2nsc3ccccc23)CC1 | > 25 mg/kg |
| O=C1c2ccccc2C(=O)N1CC1CC1CN1CCN(c2nsc3ccccc23)CC1 (configuration not stated) | 22.9 mg/kg |
| O=C1c2ccccc2CN1CCOCCN1CCN(c2nsc3ccccc23)CC1 | > 25 mg/kg |
| O=C1c2ccccc2CN1CCCCCN1CCN(c2nsc3ccccc23)CC1 | 20 mg/kg |
| O=C1c2ccccc2C(=O)N1CCCCCN1CCN(c2nsc3ccccc23)CC1 | 27 mg/kg |
| O=C1c2ccccc2CN1CCN1CCN(c2nsc3ccccc23)CC1 | > 25 mg/kg |
| O=C1c2ccccc2CN1CCCCN1CCN(c2nsc3ccccc23)CC1 | 6.8 mg/kg |
| O=C1c2ccccc2C(=O)N1CCOCCN1CCN(c2nsc3ccccc23)CC1 | > 25 mg/kg |
| O=C1c2ccccc2C(=O)N1C/C=C/CN1CCN(c2nsc3ccccc23)CC1 | 12.7 mg/kg |
| O=C1c2ccccc2C(=O)N1C/C=C\CN1CCN(c2nsc3ccccc23)CC1 | > 25 mg/kg |
| O=C(CCCN1CCC(O)(c2ccc(Cl)cc2)CC1)c1ccc(F)cc1 [HALOPERIDOL] | 2 mg/kg |
| O=C1c2ccccc2CN1C1CCC(N2CCN(c3nsc4ccccc34)CC2)CC1 (configuration not stated) | 11.7 mg/kg |
| O=C1c2ccccc2C(=O)N1CC#CCN1CCN(c2nsc3ccccc23)CC1 | > 25 mg/kg |
| O=C1c2ccccc2C(=O)N1CCN1CCN(c2nsc3ccccc23)CC1 | > 25 mg/kg |
